Measured values from US20050129725A1, “Method of controlling pest and pest control agent” (KURARAY CO., LTD., priority 2002, published 2005).
Like-named read-outs stand apart in the source and are kept apart here.

Tests used:
Coptotermes formosanus = assay type: in vivo; details: for number of Coptotermes formosanus in test section: 30 ants in total; for number of Coptotermes formosanus in control section: untreated half of same schale
Procedure: Three sets of experiment systems were prepared wherein quartz sand allowed to absorb a suitable amount of water was spread on a 90 mm diameter schale in a thickness of 1 mm, a 5 mm width groove was formed on a diameter line to divide the dish into two, three 8 mm diameter circular filters impregnated with a suitable amount of a solution of farnesylacetone or phytone in acetone and air-dried were placed in one test section, and three untreated circular filters were placed in the control section.
In each experiment system were each released 10 worker ants of Coptotermes formosanus and raised in an incubator at 28° C., humidity 70%. After a certain time, the number of Coptotermes formosanus in the test section and the control section was counted. The repellence rate and mortality were calculated from the following formulas. Repellence rate={1−(number of the ants in the test section/number of the survived ants)}×100 (%) Mortality=number of the dead ants/30×100 (%)

[1] = Odor and discomfort of sampled farnesylacetone gas in human
Procedure: (§1) Farnesylacetone (1 mL) was placed in a 50 mL sample bottle, and a large magnetic stirring bar capable of rotating the air as well was placed therein. The bottle was placed neck-deep in an oil bath at 130° C. with rotation, and heated for 1 hr to saturate the inside of the sample bottle with farnesylacetone vapor. Thereafter, the gas in the sample bottle was taken by 5 mL with a gas tight syringe, and using gas chromatography with an FID detector, the concentration of farnesylacetone was measured by the absolute calibration method.
as §1, with “placed therein” for “placed therein.”, “in a […]” for “in an oil”, “[…]” for “at 130°”, “to fill” for “to saturate”, “by an” for “by the”, “method. […] Almost simultaneously, the gas (5 mL) in the sample bottle was taken again, a propeller was set in a 10 L beaker, the gas was added into the sealed beaker, the air in the beaker was stirred with the propeller for 10 min to dilute the gas 2,000-fold, whereby gas containing […] farnesylacetone was obtained. […]” for “method.”

fleas parasitic in dogs = assay: Scratching behaviour of dog raised in sprayed dog kennel; assay type: in vivo; details: kennel sprayed every week with 1% solution in ethanol; observed 30 min every day for one week
Procedure: (§2) A dog raised in a dog kennel (vaporization area expanding means), the inside of which was sprayed every week with a 1% solution of farnesylacetone in ethanol with a spray container (reservoir means), and a dog raised in a dog kennel, the inside of which was sprayed every week with ethanol alone, were observed and compared for their behaviors for 30 min every day for one week. The dog raised in the farnesylacetone treated dog kennel scratched its body twice a day, but the dog raised in the dog kennel free of farnesylacetone treatment scratched its body 13 times a day. The concentration of farnesylacetone in the dog kennel was not more than 1 μg/L (detection limit). It is assumed that the fleas parasitic in dogs were repelled and decreased by farnesylacetone.

[2] = system: adult female Culex pipiens; assay: Repellent effect of treated wire net bags (mouse as blood source) on blood sucking by Culex pipiens; assay type: in vivo; details: summary of Experimental Example 1
Procedure: A 20-mesh soft wire net was cut into 15×16 cm, folded into two, and open two sides (longitudinal and transverse sides) were folded to give a bag. Four of these bags were prepared. Farnesylacetone (mixing ratio:[…]/trans-trans form=15/50/35) was dissolved in ethanol at 0.2 wt % and 1 wt % and one wire net bag each was immersed in one of the obtained solutions for about 10 sec. The bag was taken out from the solution, and air-dried at room temperature for 30 min to give a farnesylacetone treated wire net bag. The wire net bag treated with farnesylacetone 0.2 wt % solution was taken as Example 1, and the wire net bag treated with farnesylacetone 1 wt % solution was taken as Example 2. […] The wire net bags of Examples 1 and 2 and Comparative Example 1 were evaluated in Experimental Example 1 for the repellent effect on adult female Culex pipiens using an untreated wire net bag as a control.
50 to 70 female adult Culex pipiens at 10-15 days after eclosion and having high blood sucking activity were released inside each of four adult raising cages (30×40×30 cm). […] As a blood sucking result, the number of the test Culex pipiens with swollen abdomen was counted at a certain time intervals after the start of the test, which number was divided by the number of test Culex pipiens to calculate a blood sucking rate (%). […]

[3] = Measurement of farnesylacetone concentration in the air (gas chromatography, FID); assay type: physicochemical; details: 1 hr
Procedure: as §1, with “The bottle was placed neck-deep in an oil bath at 130° C. with rotation, and heated for 1 hr to saturate the inside of the sample bottle with farnesylacetone vapor.” left out
as §1, with “placed therein” for “placed therein.”, “in a […]” for “in an oil”, “[…]” for “at 130°”, “to fill” for “to saturate”, “by an” for “by the”, “method. […] Almost simultaneously, the gas (5 mL) in the sample bottle was taken again, a propeller was set in a 10 L beaker, the gas was added into the sealed beaker, the air in the beaker was stirred with the propeller for 10 min to dilute the gas 2,000-fold, whereby gas containing […] farnesylacetone was obtained. […]” for “method.”

[4] = Concentration of farnesylacetone in the dog kennel; assay type: physicochemical; details: kennel sprayed every week with 1% solution in ethanol; detection limit
Procedure: as §2

Blattella germanica = assay: Box shelter lurking place choice test with coated paper sheets; assay type: in vivo; details: summary of Experimental Example 2
Procedure: A mixture of farnesylacetone (mixing ratio:cis-cis form/cis-trans form and trans-cis form/trans-trans form=15/50/35) and vitamin E (antioxidant) (weight ratio 99:1) was dissolved in methanol at 0.06 wt % and 0.3 wt %. The obtained solutions were coated on a 0.26 mm thick paper sheet at 167 g/l m^2, and air-dried to evaporate methanol, whereby sheets having a farnesylacetone coating at 0.1 g/m^2 and 0.5 g/m^2 were obtained and used as Example 3 and Example 4, respectively. Both a farnesylacetone coating sheet prepared on the very day and one left open and uncontrolled by hanging in a room at a room temperature of 21-24° C. for 2 weeks, where ventilation rate was 10-15 times per 1 hour, were evaluated in Experimental Examples 2-4 for repellence performance against the larvae of Blattella germanica, Camponotus japonicus and Anthrenus verbasci using untreated paper sheet as a control.
One box shelter (length 8 cm×side 12.5 cm×height 2 cm, made of white corrugated cardboard) having one entrance (width 1 cm×height 2 cm) and one of the test-day-made products of Example 3 and 4, the products left open and uncontrolled for 2 weeks of Example 3 and 4 and a control paper sheet, which was adhered to an interior floor surface, was prepared for each test sample. […]

CC(=O)CCCC(C)CCCC(C)CCCC(C)C (stereo not drawn) [phytone]
death (number of the dead ants) (Coptotermes formosanus; concentration 10%, 1 day later): 0
repellence rate (Coptotermes formosanus; concentration 10%, 1 day later): 63%
number of Coptotermes formosanus in test section (Coptotermes formosanus; concentration 10%, 1 day later): 11
number of Coptotermes formosanus in control section (Coptotermes formosanus; concentration 10%, 1 day later): 19
death (number of the dead ants) (Coptotermes formosanus; concentration 50%, 1 day later): 1
repellence rate (Coptotermes formosanus; concentration 50%, 1 day later): 86%
number of Coptotermes formosanus in test section (Coptotermes formosanus; concentration 50%, 1 day later): 4
number of Coptotermes formosanus in control section (Coptotermes formosanus; concentration 50%, 1 day later): 25

CC(=O)CC/C=C(\C)CC/C=C(\C)CCC=C(C)C [farnesylacetone]
odor and effect of sampled gas on human ([1]; gas containing 20,000 μg/L): had a strong odor, caused cough when inhaled in a large amount, and provoked uncomfortable feeling in human
odor of sampled gas detected by human ([1]; gas further diluted 10-fold, printed as containing 0.01 μg/L): scarcely had an odor detected by human
dog scratched its body (times a day) (fleas parasitic in dogs): twice a day
course of repellent effect of treated wire net bag on Culex pipiens [2]: maintained at a high level even after 18 hr
concentration of farnesylacetone in the gas ([3]; sample bottle filled with vapor, water bath at 60° C.): 20 µg/L
concentration of farnesylacetone in the gas ([3]; sample bottle saturated with vapor, oil bath at 130° C.): 20,000 μg/L
death (number of the dead ants) (Coptotermes formosanus; concentration 1%, 1 day later): 1
repellence rate (Coptotermes formosanus; concentration 1%, 1 day later): 86%
number of Coptotermes formosanus in test section (Coptotermes formosanus; concentration 1%, 1 day later): 4
number of Coptotermes formosanus in control section (Coptotermes formosanus; concentration 1%, 1 day later): 25
death (number of the dead ants) (Coptotermes formosanus; concentration 1%, 4 days later): 1
repellence rate (Coptotermes formosanus; concentration 1%, 4 days later): 100%
number of Coptotermes formosanus in test section (Coptotermes formosanus; concentration 1%, 4 days later): 0
number of Coptotermes formosanus in control section (Coptotermes formosanus; concentration 1%, 4 days later): 29
death (number of the dead ants) (Coptotermes formosanus; concentration 5%, 1 day later): 2
repellence rate (Coptotermes formosanus; concentration 5%, 1 day later): 100%
number of Coptotermes formosanus in test section (Coptotermes formosanus; concentration 5%, 1 day later): 0
number of Coptotermes formosanus in control section (Coptotermes formosanus; concentration 5%, 1 day later): 28
death (number of the dead ants) (Coptotermes formosanus; concentration 5%, 4 days later): 3
repellence rate (Coptotermes formosanus; concentration 5%, 4 days later): 96%
number of Coptotermes formosanus in test section (Coptotermes formosanus; concentration 5%, 4 days later): 1
number of Coptotermes formosanus in control section (Coptotermes formosanus; concentration 5%, 4 days later): 26
concentration of farnesylacetone in the dog kennel [4]: not more than 1 μg/L
time for which treated paper sheet maintained Blattella germanica control effect (Blattella germanica): at least 2 weeks

CCN(CC)C(=O)c1cccc(C)c1 [DEET, N,N-diethyl-m-tolamide, reference compound]
course of repellent effect of treated wire net bag on Culex pipiens [2]: decreases with time
